Bridge positions count the residues as written; N and C are the ends. Peptide text beside a SMILES is read from it.
Legend:
[1] = test system: Staphylococcal enterotoxin B-induced systemic inflammation; details: mouse, in vivo
[2] = biological target: T1, importin α5/karyopherin α1 (/KPNA1/SRP1) (Homo sapiens, UniProt P52294); assay: Binding to the nuclear import adaptor
T1 construct: SRP1/importin alpha 5 (karyopherin alpha1)/importin beta 1 heterodimer expressed in Jurkat T cells; endogenous in cells; host or cells: Jurkat T cells
From the text: Inflammatory liver injury mediated by macrophages (Kupffer cells) or T cells depends on the nuclear import of SRTFs. SRTFs regulate the genome response to proinflammatory and proapoptotic cues. The mechanism of action of cell-penetrating peptides SN50 and its cyclized analog cSN50 that inhibit the nuclear import of SRTFs is shown herein. SN50 binds to a nuclear import adaptor protein termed importin α5/karyopherin α1 (/KPNA1/SRP1) and inhibits its function as a cytoplasmic/nuclear shuttle for SRTFs. […] However, prior to the present disclosure, it was not known how EtOH influences the importin α5/karyopherin α1 (/KPNA1/SRP1)—mediated signaling to the nucleus and genome response in hepatocytes induced by LPS or Con A. Also identified was another putative nuclear import adapter, termed SARM, which appears to participate in LPS-induced liver injury. […] Example 2: Nuclear Import of Stress-Responsive Transcription Factors (SRTFs) Is Required for Inflammatory and Apoptotic Gene Expression.
It is well-recognized that signaling to the nucleus plays a key role in the response of T lymphocytes to immune and inflammatory stimuli. […]

[3] = test system: nuclear import of NF-κB, AP-1, NFAT, and STAT1 in Jurkat T cells; assay type: cell-based, human

T1 sequence (P52294 whole entry): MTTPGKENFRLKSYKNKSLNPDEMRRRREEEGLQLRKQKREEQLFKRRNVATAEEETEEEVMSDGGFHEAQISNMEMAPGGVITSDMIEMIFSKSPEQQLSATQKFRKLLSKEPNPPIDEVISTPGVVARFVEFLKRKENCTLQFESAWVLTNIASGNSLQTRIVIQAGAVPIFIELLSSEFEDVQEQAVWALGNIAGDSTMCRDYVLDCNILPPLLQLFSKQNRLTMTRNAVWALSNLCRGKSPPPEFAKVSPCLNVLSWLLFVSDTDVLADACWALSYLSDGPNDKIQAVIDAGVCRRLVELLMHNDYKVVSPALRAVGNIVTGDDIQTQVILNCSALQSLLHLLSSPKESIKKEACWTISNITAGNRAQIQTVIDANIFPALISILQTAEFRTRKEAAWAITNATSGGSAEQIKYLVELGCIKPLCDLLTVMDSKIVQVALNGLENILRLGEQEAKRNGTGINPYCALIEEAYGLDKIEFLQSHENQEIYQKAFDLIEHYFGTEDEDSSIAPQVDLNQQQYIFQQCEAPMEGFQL
T1 sequence (Q14974 whole entry partner): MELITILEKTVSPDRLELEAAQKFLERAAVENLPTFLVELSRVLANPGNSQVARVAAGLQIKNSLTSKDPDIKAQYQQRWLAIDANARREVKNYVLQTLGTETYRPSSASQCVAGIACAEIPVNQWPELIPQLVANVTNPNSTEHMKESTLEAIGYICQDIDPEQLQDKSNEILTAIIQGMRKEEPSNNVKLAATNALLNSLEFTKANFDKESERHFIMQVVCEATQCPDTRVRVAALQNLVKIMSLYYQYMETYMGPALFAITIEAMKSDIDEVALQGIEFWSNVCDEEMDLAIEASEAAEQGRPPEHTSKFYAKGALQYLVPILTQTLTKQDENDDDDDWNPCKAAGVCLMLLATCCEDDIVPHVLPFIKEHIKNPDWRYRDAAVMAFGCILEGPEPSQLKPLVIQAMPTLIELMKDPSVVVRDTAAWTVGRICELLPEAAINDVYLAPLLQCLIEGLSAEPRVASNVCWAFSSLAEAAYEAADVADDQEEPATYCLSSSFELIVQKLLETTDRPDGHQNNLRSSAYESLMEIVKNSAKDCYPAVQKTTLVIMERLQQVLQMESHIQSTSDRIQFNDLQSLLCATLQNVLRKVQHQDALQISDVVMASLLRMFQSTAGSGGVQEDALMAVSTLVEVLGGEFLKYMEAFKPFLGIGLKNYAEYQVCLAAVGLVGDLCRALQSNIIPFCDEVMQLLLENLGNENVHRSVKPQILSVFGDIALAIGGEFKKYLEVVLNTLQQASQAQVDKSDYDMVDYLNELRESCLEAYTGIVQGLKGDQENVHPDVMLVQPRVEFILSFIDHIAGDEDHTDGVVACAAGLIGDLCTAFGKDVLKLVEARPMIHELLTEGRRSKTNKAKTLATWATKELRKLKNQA

## CSCC[C@@H]1NC(=O)[C@H](CC(C)C)NC(=O)[C@H](CCCCN)NC(=O)[C@H](CCC(N)=O)NC(=O)[C@H](CCCNC(=N)N)NC(=O)[C@H](CCCCN)NC(=O)[C@H](CCCNC(=N)N)NC(=O)[C@H](CCC(N)=O)NC(=O)[C@H](C(C)C)NC(=O)[C@H](Cc2ccc(O)cc2)NC(=O)[C@@H](NC(=O)[C@@H]2CCCN2C(=O)[C@H](C)NC(=O)[C@H](CC(C)C)NC(=O)[C@H](CC(C)C)NC(=O)[C@H](C)NC(=O)[C@H](CC(C)C)NC(=O)[C@H](CC(C)C)NC(=O)[C@@H](NC(=O)[C@H](C)NC(=O)[C@@H]2CCCN2C(=O)[C@H](CC(C)C)NC(=O)[C@H](CC(C)C)NC(=O)[C@H](C)NC(=O)[C@@H](NC(=O)[C@H](C)NC(=O)[C@H](C)N)C(C)C)C(C)C)CSSC[C@@H](C(=O)O)NC(=O)[C@@H]2CCCN2C1=O [cSN50] (H-AAVALLPAVLLALLAPCYVQRKRQKLMPC-OH; disulfide 17-29; N-terminus and C-terminus assumed)
[1]
  undesirable side effects: does not seem to cause undesirable side effects

## AAVALLPAVLLALLAPVQRKRQKLMP [SN50, SSHR of K-FGF linked to NLS of NF-κB1 p50]
[2]
  binding to importin α5/karyopherin α1: binds
[3]
  nuclear import of SRTFs: prevents nuclear import of four SRTFs
